Assays:
Settings in all cases: synthetic library passage 3, intravenous, relative to wild-type AAV9
[1] = system: brain, spinal cord, and DRG of the NHPs; test: NGS fold enrichment of synthetic library (passage 3) in NHPs, first cross-species screen; assay type: in vivo, cynomolgus macaques (Macaca fascicularis)
Outline: (§1)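 Synthetic capsid library (passage 3) was given intravenously […] to NHPs aged 2-4 years and to BALB/c and C57Bl/6 mice (n=3 each, 6-8 weeks). After about 28 days in vivo, tissue RNA was RT-PCR amplified and NGS-sequenced; values are fold enrichment per variant relative to wild-type AAV9.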

brain [2] = test: NGS fold enrichment of synthetic library (passage 3) in BALB/c mice, first cross-species screen; assay type: in vivo
Outline: as §1

brain [3] = test: NGS fold enrichment of synthetic library (passage 3) in C57Bl/6 mice, first cross-species screen; assay type: in vivo
Outline: as §1

[4] = RNA from spinal cord of NHPs, NGS
[5] = RNA from brain of BALB/c mice, NGS
[6] = RNA from brain of C57Bl/6 mice, NGS

Row | Sequence | Fold enrichment over AAV9 in the brain of NHPs ([1]; RNA NGS, brain of NHPs) | Fold enrichment over AAV9 in the spinal cord of NHPs ([1]; RNA NGS, spinal cord of NHPs) | Fold enrichment over AAV9 in the brain of Mice (BALB/c) (brain [2]; RNA NGS, brain of BALB/c mice) | Fold enrichment over AAV9 in the brain of Mice (C57Bl/6) (brain [3]; RNA NGS, brain of C57Bl/6 mice) | Fold enrichment over AAV9 in the brain of NHPs ([1]; RNA from brain of NHPs, NGS) | Fold enrichment over AAV9 in the spinal cord of NHPs [1, 4] | Fold enrichment over AAV9 in the brain of Mice (BALB/c) (brain [2]; [5]) | Fold enrichment over AAV9 in the brain of Mice (C57Bl/6) (brain [3]; [6])
1 | GSPYMGATGQNQQT | 1.083 fold | 5.364 fold | 0.254 fold | 0.918 fold | – | – | – | –
2 | GSGSKQNALQNQQT | – | – | – | – | 1.216 fold | 2.010 fold | 0.594 fold | 0.941 fold
3 | GSGQNQQTKVGHSA | 1.079 fold | 1.256 fold | 1.019 fold | 0.669 fold | – | – | – | –
4 | GSGQNQRGALATQT | 1.722 fold | 1.117 fold | 0.891 fold | 0.899 fold | – | – | – | –
5 | GSGFLSDTRQNQQT | 1.566 fold | 45.953 fold | 0.575 fold | 0.473 fold | – | – | – | –
6 | GSGFGPQTGQNQQT | 2.964 fold | 2.861 fold | 0.849 fold | 1.280 fold | – | – | – | –
7 | GSGQNQQSAREGLT | 3.111 fold | 5.632 fold | 1.104 fold | 1.221 fold | – | – | – | –
8 | GNGLYAVSGQNQQT | 2.611 fold | 9.148 fold | 0.213 fold | 0.322 fold | – | – | – | –
9 | GSGAITHMPQNQQT | 1.695 fold | 1.681 fold | 0.411 fold | 0.647 fold | – | – | – | –
10 | GSGQNRKPASFAQT | 3.204 fold | 0.000 fold | 1.061 fold | 0.892 fold | – | – | – | –
11 | GMTSHSVSGQNQQT | 1.850 fold | 2.732 fold | 0.154 fold | 0.220 fold | – | – | – | –
12 | GSGQLSHQSVNQQT | 1.898 fold | 4.032 fold | 0.695 fold | 0.720 fold | – | – | – | –
13 | GSGQNQQARPLELT | 1.061 fold | 0.059 fold | 0.252 fold | 0.389 fold | – | – | – | –
14 | GSGQNQQALGSQRT | 1.695 fold | 1.934 fold | 0.562 fold | 1.419 fold | – | – | – | –
15 | GSGHNQQVRTAPNT | 1.885 fold | 1.022 fold | 0.580 fold | 1.006 fold | – | – | – | –
16 | GSGQHSNQHVNQQT | – | – | – | – | 1.192 fold | 1.453 fold | 0.558 fold | 0.955 fold
17 | GSGKNQTPIPKGQT | – | – | – | – | 1.339 fold | 5.077 fold | 1.154 fold | 1.306 fold
18 | GSGQSHSLETNQQT | – | – | – | – | 1.188 fold | 1.319 fold | 0.363 fold | 0.520 fold
19 | GSGQNQQSHGRIGT | – | – | – | – | 1.173 fold | 5.117 fold | 0.455 fold | 0.607 fold
20 | GSSVSPSSGQNQQT | 2.054 fold | 0.579 fold | 0.787 fold | 1.064 fold | – | – | – | –

Row | Sequence | Fold enrichment over AAV9 in the brain of NHPs ([1]; RNA NGS, brain of NHPs) | Fold enrichment over AAV9 in the spinal cord of NHPs ([1]; RNA NGS, spinal cord of NHPs) | Fold enrichment over AAV9 in the brain of Mice (BALB/c) (brain [2]; RNA NGS, brain of BALB/c mice) | Fold enrichment over AAV9 in the brain of Mice (C57Bl/6) (brain [3]; RNA NGS, brain of C57Bl/6 mice) | Fold enrichment over AAV9 in the brain of NHPs ([1]; RNA from brain of NHPs, NGS) | Fold enrichment over AAV9 in the spinal cord of NHPs [1, 4] | Fold enrichment over AAV9 in the brain of Mice (BALB/c) (brain [2]; [5]) | Fold enrichment over AAV9 in the brain of Mice (C57Bl/6) (brain [3]; [6])
21 | GRGQNVSSVHRQQT | 5.404 fold | 0.000 fold | 0.691 fold | 1.206 fold | – | – | – | –
22 | GSGQNQQTLPSLSL | 1.084 fold | 1.758 fold | 0.175 fold | 0.527 fold | – | – | – | –
23 | GSGQNQQHVSSPRT | 2.176 fold | 1.279 fold | 0.938 fold | 1.847 fold | – | – | – | –
24 | GDMTRSSSGQNQQT | 1.075 fold | 0.802 fold | 1.038 fold | 1.145 fold | – | – | – | –
25 | GSGSPRDSIQNQQT | 1.981 fold | 4.914 fold | 0.446 fold | 0.171 fold | – | – | – | –
26 | GSGDTLHMLQNQQT | 3.317 fold | 1.174 fold | 0.482 fold | 0.393 fold | – | – | – | –
27 | GPPQHMTSGQNQQT | 1.457 fold | 1.547 fold | 0.677 fold | 0.509 fold | – | – | – | –
28 | GHHTTVQSGQNQQT | 2.177 fold | 6.245 fold | 0.755 fold | 0.851 fold | – | – | – | –
29 | GSGQLPQSGLNQQT | – | – | – | – | 1.218 fold | 1.504 fold | 0.318 fold | 0.641 fold
30 | GSGQNQQVGGKTVT | 1.032 fold | 6.195 fold | 0.821 fold | 1.094 fold | – | – | – | –
31 | GSGQLSGTPQNQQT | – | – | – | – | 1.185 fold | 1.382 fold | 0.643 fold | 1.025 fold
32 | GSGQNQYSIPVAQT | 1.891 fold | 1.194 fold | 0.297 fold | 0.511 fold | – | – | – | –
33 | GSGQMASRESNQQT | 2.492 fold | 0.300 fold | 0.288 fold | 0.341 fold | – | – | – | –
34 | GSLGNLQRGQNQQT | 1.003 fold | 0.895 fold | 0.385 fold | 0.947 fold | – | – | – | –
35 | GSGLSVQSGQNQQT | 2.637 fold | 2.929 fold | 1.005 fold | 1.695 fold | – | – | – | –
36 | GSGQSHSLATNQQT | 1.745 fold | 2.711 fold | 0.343 fold | 1.021 fold | – | – | – | –
37 | GSGQNQQLKNSTST | – | – | – | – | 1.235 fold | 1.703 fold | 0.538 fold | 1.063 fold
38 | GLAHKTSSGQNQQT | 1.106 fold | 0.915 fold | 0.690 fold | 0.427 fold | – | – | – | –
39 | GSSVGSPIGQNQQT | 1.584 fold | 3.574 fold | 0.706 fold | 1.059 fold | – | – | – | –
40 | GSLLSAGMGQNQHT | 1.856 fold | 6.168 fold | 0.342 fold | 0.589 fold | – | – | – | –

Reference: patent publication US20260250318A1, “COMPOSITIONS AND METHODS FOR CROSSING THE BLOOD BRAIN BARRIER” (VOYAGER THERAPEUTICS, INC., priority 2022, published 2026)
